# From article PMC11470957, “Principles of paralog-specific targeted protein degradation engaging the C-degron E3 KLHDC2” (Nature Communications, 2024)
# “And” between values parts separate entries of the source, which are not always exact repeats. Identical values can stand only once.
# Target: T1, KLHDC2 (Homo sapiens, UniProt Q9Y2U9)
# T1 sequence (Q9Y2U9 1-406): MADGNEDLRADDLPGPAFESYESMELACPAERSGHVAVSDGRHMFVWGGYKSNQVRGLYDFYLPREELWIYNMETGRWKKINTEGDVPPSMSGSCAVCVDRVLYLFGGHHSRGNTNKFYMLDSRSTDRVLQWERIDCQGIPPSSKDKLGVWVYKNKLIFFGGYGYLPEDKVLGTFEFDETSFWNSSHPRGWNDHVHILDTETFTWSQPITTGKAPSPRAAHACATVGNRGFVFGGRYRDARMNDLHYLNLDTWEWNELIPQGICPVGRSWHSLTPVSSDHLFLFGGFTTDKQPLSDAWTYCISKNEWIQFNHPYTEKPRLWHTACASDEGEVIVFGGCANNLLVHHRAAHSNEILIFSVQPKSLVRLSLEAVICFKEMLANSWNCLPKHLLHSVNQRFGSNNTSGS
# Assay: Western blot of KLHDC2 levels after cellular dosing
structure (smiles),measurement,setting,value
COC(=O)CNC(=O)Cc1csc(-c2ccc3cccc(OCCN4CCN(C(=O)C[C@@H]5N=C(c6ccc(Cl)cc6)c6c(sc(C)c6C)-n6c(C)nnc65)CC4)c3c2)n1 [SJ46420],KLHDC2 level relative to DMSO (100%),"22Rv1, 0.16µM, 24 h, Fig S6f",167 +/- 17%
same,KLHDC2 level relative to DMSO (100%),"22Rv1, 0.31µM, 24 h, Fig S6f",171 +/- 10%
same,KLHDC2 level relative to DMSO (100%),"22Rv1, 0.63µM, 24 h, Fig S6f",179 +/- 13%
same,KLHDC2 level relative to DMSO (100%),"22Rv1, 1.3µM, 24 h, Fig S6f",199 +/- 27%
same,KLHDC2 level relative to DMSO (100%),"22Rv1, 2.5µM, 24 h, Fig S6f",170 +/- 35%
same,KLHDC2 level relative to DMSO (100%),"22Rv1, 5µM, 24 h, Fig S6f",238 +/- 26%
same,KLHDC2 level relative to DMSO (100%),"22Rv1, 10µM, 24 h, Fig S6f",356 +/- 37%
same,KLHDC2 level relative to DMSO (100%),"293T, 2.5µM, 24 h, Fig S6a",130 +/- 3.8%
same,KLHDC2 level relative to DMSO (100%),"293T, 5µM, 24 h, Fig S6a",132 +/- 4.4%
same,KLHDC2 level relative to DMSO (100%),"AU565, 0.2µM, 8 h, Fig S6c",96 +/- 4.5%
same,KLHDC2 level relative to DMSO (100%),"AU565, 1µM, 8 h, Fig S6c",102 +/- 8.6%
same,KLHDC2 level relative to DMSO (100%),"AU565, 5µM, 8 h, Fig S6c",104 +/- 6.7%
same,"KLHDC2 level, Western blot quantification","Fig 6b, KO/Rescue, 5 uM, DMSO printed 0",0
same,"KLHDC2 level, Western blot quantification (DMSO = 100)","Fig 6b, U2OS, 5 uM",114.478 and 116.145
same,"KLHDC2 level, Western blot quantification (DMSO = 100)","Fig 6c, 1 uM",373.51 and 441.349
same,"KLHDC2 level, Western blot quantification (DMSO = 100)","Fig 6d, 1 uM",1598.67 and 1321.11
same,"KLHDC2 level, Western blot quantification (DMSO = 100)","Fig 6d, 1uM together with 1uM MLN4924",4337 and 4000.23
same,"KLHDC2 level, Western blot quantification (DMSO = 100)","Fig S6a, 293T cells, 2.5 uM",127.565 and 133
same,"KLHDC2 level, Western blot quantification (DMSO = 100)","Fig S6a, 293T cells, 5 uM",128.652 and 135
same,"KLHDC2 level, Western blot quantification (DMSO = 100)","Fig S6b, MDA-MB468 Cells, 2 uM",157.366 and 160
same,"KLHDC2 level, Western blot quantification (DMSO = 100)","Fig S6b, MDA-MB468 Cells, 5 uM",170.896 and 175
same,"KLHDC2 level, Western blot quantification (DMSO = 100)","Fig S6b, MDA-MB468 Cells, 10 uM",190.223 and 200
same,"KLHDC2 level, Western blot quantification (DMSO = 100)","Fig S6c, AU565 Cells, 0.2 uM",94.0454 and 99.4615
same,"KLHDC2 level, Western blot quantification (DMSO = 100)","Fig S6c, AU565 Cells, 1 uM",108.13 and 96.9184
same,"KLHDC2 level, Western blot quantification (DMSO = 100)","Fig S6c, AU565 Cells, 5 uM",108.427 and 99.9384
same,"KLHDC2 level, Western blot quantification (DMSO = 100)","Fig S6f, 22RV1 KO/rescue Dose Response, 0.156 uM",180 and 155
same,"KLHDC2 level, Western blot quantification (DMSO = 100)","Fig S6f, 22RV1 KO/rescue Dose Response, 0.313 uM",178 and 164
same,"KLHDC2 level, Western blot quantification (DMSO = 100)","Fig S6f, 22RV1 KO/rescue Dose Response, 0.625 uM",188 and 170
same,"KLHDC2 level, Western blot quantification (DMSO = 100)","Fig S6f, 22RV1 KO/rescue Dose Response, 1.25 uM",219 and 180
same,"KLHDC2 level, Western blot quantification (DMSO = 100)","Fig S6f, 22RV1 KO/rescue Dose Response, 2.5 uM",149 and 192
same,"KLHDC2 level, Western blot quantification (DMSO = 100)","Fig S6f, 22RV1 KO/rescue Dose Response, 5 uM",256 and 220
same,"KLHDC2 level, Western blot quantification (DMSO = 100)","Fig S6f, 22RV1 KO/rescue Dose Response, 10uM",382 and 330
same,"KLHDC2 level, Western blot quantification (DMSO = 100)","Fig S6g, SKBR3 Time course, 1 uM, 2hr",96.2473 and 100.234
same,"KLHDC2 level, Western blot quantification (DMSO = 100)","Fig S6g, SKBR3 Time course, 1 uM, 4hr",98.547 and 105.246
same,"KLHDC2 level, Western blot quantification (DMSO = 100)","Fig S6g, SKBR3 Time course, 1 uM, 8hr",108.754 and 118.735
same,"KLHDC2 level, Western blot quantification (DMSO = 100)","Fig S6g, SKBR3 Time course, 5 uM, 2hr",110.116 and 102.856
same,"KLHDC2 level, Western blot quantification (DMSO = 100)","Fig S6g, SKBR3 Time course, 5 uM, 4hr",118.1 and 127.234
same,"KLHDC2 level, Western blot quantification (DMSO = 100)","Fig S6g, SKBR3 Time course, 5 uM, 8hr",125.323 and 132.123
same,"KLHDC2 level, Western blot quantification (DMSO = 100)","Fig S6i, SKBR3, 5uM",108.759 and 120.207
same,"KLHDC2 level, Western blot quantification (DMSO = 100)","Fig S6i, U2OS, 5uM",115.927 and 106.939
same,"KLHDC2 level, Western blot quantification (DMSO = 100)","Fig S6h, U2OS Time course, 5uM, 2hr",102.827 and 100.635
same,"KLHDC2 level, Western blot quantification (DMSO = 100)","Fig S6h, U2OS Time course, 5uM, 4hr",116.419 and 128.136
same,"KLHDC2 level, Western blot quantification (DMSO = 100)","Fig S6h, U2OS Time course, 5uM, 8hr",157.536 and 145.235
same,"KLHDC2 level, Western blot quantification (DMSO = 100)","Fig S6h, U2OS Time course, 5uM, 24hr",121.407 and 133.135
same,"KLHDC2 level, Western blot quantification (DMSO = 100)","Fig S6d, U2OS KO/rescue Dose Response, 0.156 uM",140 and 155
same,"KLHDC2 level, Western blot quantification (DMSO = 100)","Fig S6d, U2OS KO/rescue Dose Response, 0.313 uM",192 and 220
same,"KLHDC2 level, Western blot quantification (DMSO = 100)","Fig S6d, U2OS KO/rescue Dose Response, 0.625 uM",253 and 275
same,"KLHDC2 level, Western blot quantification (DMSO = 100)","Fig S6d, U2OS KO/rescue Dose Response, 1.25 uM",345 and 380
same,"KLHDC2 level, Western blot quantification (DMSO = 100)","Fig S6d, U2OS KO/rescue Dose Response, 2.5 uM",540 and 580
same,"KLHDC2 level, Western blot quantification (DMSO = 100)","Fig S6d, U2OS KO/rescue Dose Response, 5 uM",581 and 620
same,KLHDC2 level relative to DMSO (100%),"MDA-MB-468, 2.5µM, 24 h, Fig S6b",158 +/- 1.9%
same,KLHDC2 level relative to DMSO (100%),"MDA-MB-468, 5µM, 24 h, Fig S6b",172 +/- 4.4%
same,KLHDC2 level relative to DMSO (100%),"MDA-MB-468, 10µM, 24 h, Fig S6b",195 +/- 7.2%
same,KLHDC2 level relative to DMSO (100%),"PC3, 0.16µM, 24 h, Fig S6e",65 +/- 9.7%
same,KLHDC2 level relative to DMSO (100%),"PC3, 0.31µM, 24 h, Fig S6e",68 +/- 8.9%
same,KLHDC2 level relative to DMSO (100%),"PC3, 0.63µM, 24 h, Fig S6e",43 +/- 15%
same,KLHDC2 level relative to DMSO (100%),"PC3, 1.3µM, 24 h, Fig S6e",48 +/- 8.5%
same,KLHDC2 level relative to DMSO (100%),"PC3, 2.5µM, 24 h, Fig S6e",50 +/- 8.6%
same,KLHDC2 level relative to DMSO (100%),"PC3, 5µM, 24 h, Fig S6e",49 +/- 6.1%
same,KLHDC2 level relative to DMSO (100%),"PC3, 10µM, 24 h, Fig S6e",40 +/- 7.2%
same,KLHDC2 level relative to DMSO (100%),"SKBR3, 1µM, 2hr, Fig S6g",98 +/- 2.6%
same,KLHDC2 level relative to DMSO (100%),"SKBR3, 1µM, 4hr, Fig S6g",101 +/- 4.6%
same,KLHDC2 level relative to DMSO (100%),"SKBR3, 5µM, 2hr, Fig S6g",106 +/- 5.8%
same,KLHDC2 level relative to DMSO (100%),"SKBR3, 5µM, 4hr, Fig S6g",122 +/- 6.3%
same,KLHDC2 level relative to DMSO (100%),"SKBR3, 5µM, 8hr, Fig S6g",129 +/- 4.7%
same,KLHDC2 level relative to DMSO (100%),"U2OS DC2KO (KLHDC2 knockout), 5µM, 24 h, Fig 6b",0 +/- 0%
same,KLHDC2 level relative to DMSO (100%),"U2OS KO/Rescue, 0.16µM, 24 h, Fig S6d",146 +/- 12%
same,KLHDC2 level relative to DMSO (100%),"U2OS KO/Rescue, 0.31µM, 24 h, Fig S6d",205 +/- 21%
same,KLHDC2 level relative to DMSO (100%),"U2OS KO/Rescue, 0.63µM, 24 h, Fig S6d",264 +/- 16%
same,KLHDC2 level relative to DMSO (100%),"U2OS KO/Rescue, 1µM + co-dosing 1µM MLN4924, 24 h, Fig 6d",4170 +/- 238%
same,KLHDC2 level relative to DMSO (100%),"U2OS KO/Rescue, 1µM, 24 h, Fig 6c",407 +/- 47%
same,KLHDC2 level relative to DMSO (100%),"U2OS KO/Rescue, 1µM, 24 h, Fig 6d",1460 +/- 196%
same,KLHDC2 level relative to DMSO (100%),"U2OS KO/Rescue, 1.3µM, 24 h, Fig S6d",362 +/- 25%
same,KLHDC2 level relative to DMSO (100%),"U2OS KO/Rescue, 2.5µM, 24 h, Fig S6d",559 +/- 29%
same,KLHDC2 level relative to DMSO (100%),"U2OS KO/Rescue, 5µM, 24 h, Fig S6d",600 +/- 32%
same,KLHDC2 level relative to DMSO (100%),"U2OS KO/Rescue, concentration not printed (line after 5µM), 24 h, Fig S6d",710 +/- 67%
same,KLHDC2 level relative to DMSO (100%),"U2OS, 5µM, 2hr, Fig S6h",101 +/- 1.9%
same,KLHDC2 level relative to DMSO (100%),"U2OS, 5µM, 4hr, Fig S6h",122+/- 8.2%
same,KLHDC2 level relative to DMSO (100%),"U2OS, 5µM, 8hr, Fig S6i",111 +/- 6.4%
same,KLHDC2 level relative to DMSO (100%),"U2OS, 5µM, 8hr, Fig S6h",151 +/- 8.8%
same,KLHDC2 level relative to DMSO (100%),"U2OS, 5µM, 24hr, Fig S6h",127 +/- 8.2%
